Source: article PMC60990 (BMC Microbiology, 2001)

Assays:
PfPP5 [1] = target: T1, PfPP5 (Plasmodium falciparum, UniProt Q8WQR3); assay: […]-phosphohistone dephosphorylation, phosphomolybdate extraction; type: biochemical; settings: activator, 32P-phosphohistone, pH 7.5, 37°C
T1 sequence (Q8WQR3 1-594): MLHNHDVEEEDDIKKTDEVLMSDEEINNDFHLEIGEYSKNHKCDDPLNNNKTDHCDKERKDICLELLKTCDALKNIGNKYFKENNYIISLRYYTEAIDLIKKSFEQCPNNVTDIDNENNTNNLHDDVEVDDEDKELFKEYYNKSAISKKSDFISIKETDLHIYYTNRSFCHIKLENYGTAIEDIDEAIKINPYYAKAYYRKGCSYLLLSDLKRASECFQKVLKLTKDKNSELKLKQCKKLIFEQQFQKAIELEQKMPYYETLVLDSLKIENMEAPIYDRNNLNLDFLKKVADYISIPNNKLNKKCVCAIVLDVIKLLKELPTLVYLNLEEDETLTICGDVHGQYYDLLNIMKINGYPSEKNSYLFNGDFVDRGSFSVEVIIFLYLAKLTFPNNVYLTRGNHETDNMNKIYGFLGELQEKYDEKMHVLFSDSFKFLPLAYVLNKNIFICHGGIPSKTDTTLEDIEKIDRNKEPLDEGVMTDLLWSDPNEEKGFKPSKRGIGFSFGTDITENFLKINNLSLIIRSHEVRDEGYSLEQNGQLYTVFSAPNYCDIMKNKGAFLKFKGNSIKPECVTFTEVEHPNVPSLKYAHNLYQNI

PfPP5 [2] = target: T1, PfPP5; assay: as above; type: biochemical; settings: pH 7.5, 37°C

CCCCC/C=C\C/C=C\C/C=C\C/C=C\CCCC(=O)O [arachidonic acid]
fold stimulation of activity (PfPP5 [1]; about 70 μM fatty acid): ~ 3 fold

CCCCCCCC/C=C\CCCCCCCC(=O)O [oleic acid]
fold stimulation of activity (PfPP5 [1]; about 80 μM fatty acid): ~ 3 fold

CCCCCCCCCCCCCCCCCC(=O)O [stearic acid]
32P-phosphohistone dephosphorylation, phosphomolybdate extraction (PfPP5 [2]): stearic acid, a saturated fatty acid, did not appreciably stimulate PfPP5 activity
